Converted amounts (≈) assume the structure as drawn.
What was measured:
Candida albicans = assay: Broth dilution MIC / antimicrobial test against Candida albicans (A.T.C.C. 10259); format: cell-based; details: 25°
Description: (§1) In testing for the anti-microbial activity five different types of organics were selected: Staphyloccoccus aureus, Escherichia coli, Pseudomonas aeruginosa, Candida albicans, and Aspergillus niger. The inclusion of Asperigillus niger and Pseudomonas aeruginosa in the inocula is recommended to ensure a wide range of protection because these ubiquitous organisms grow in a large variety of formulations and relatively resistant to antimicrobial agents. The incidence of contaminated cosmetics has been the subject of several investigations ^(6)(7). Pseudomonas was the predominant organism found.
(§2) One Gram-positive, two Gram-negative bacteria, one each of a yeast and a mold were selected for the test. These were, respectively, Staphylococcus aureus(A.T.C.C. 6538), Escherichia coli(A.T.C.C. 11229), Pseudomonas aeruginosa(A.T.C.C. 15442), Candida albicans(A.T.C.C. 10259), and Aspergillus niger(A.T.C.C. 1015).
(§3) Portions of four or five discrete colonies representative of the organisms to be tested were inoculated into 10.0 ml. of a suitable broth medium and marked accordingly. The inoculated tubes were incubated at 37° for S. aureus, E. coli, and P. aeruginosa, and at 25° for C. albicans and A. niger for 18-24 hours.
(§4) Medium: Trypticase Soy Agar(BBL) was used for bacteria, and Sabouraud Maltose Agar(BBL) for the yeast and the mold.
(§5) Inoculation of agar plates and incubation: A 10 cm. round plastic plate was used for the preparation of medium. Each plate was divided into four areas by marking on the bottom of the plate. The agar plate was streaked by the appropriate inoculation loop. Three thin loopful of inocula were applied for covering the complete agar plate. Approximately 10-15 mg. of compound to be tested was placed at the corresponding area of each inoculated plate. The plates inoculated with S. aureus, E. coli, and P. aeruginosa were incubated at 37° for 24-48 hours, and those incubated with C. albicans and A. niger were incubated at 25° for 48-72 hours. […]

Aspergillus niger = assay: Broth dilution MIC / antimicrobial test against Aspergillus niger (A.T.C.C. 1015); format: cell-based; details: 25°
Description: as §1, §2, §3
Medium: Trypticase Soy Agar(BBL) was used for bacteria, and Sabouraud Maltose Agar(BBL) for the yeast and the mold. […]

Pseudomonas aeruginosa = assay: Broth dilution MIC / antimicrobial test against Pseudomonas aeruginosa (A.T.C.C. 15442); format: cell-based; details: 37°
Description: as §1, §2, §3, §4, §5

Escherichia coli = assay: Broth dilution MIC / antimicrobial test against Escherichia coli (A.T.C.C. 11229); format: cell-based; details: 37°
Description: as §1, §2, §3, §4, §5

Staphylococcus aureus = assay: Broth dilution MIC / antimicrobial test against Staphylococcus aureus (A.T.C.C. 6538); format: cell-based; details: for activity against S. aureus (in words): 37°
Description: as §1, §2, §3, §4
Inoculation of agar plates and incubation: A 10 cm. round plastic plate was used for the preparation of medium. Each plate was divided into four areas by marking on the bottom of the plate. The agar plate was streaked by the appropriate inoculation loop. Three thin loopful of inocula were applied for covering the complete agar plate. Approximately 10-15 mg. of compound to be tested was placed at the corresponding area of each inoculated plate. The plates inoculated with S. aureus, E. coli, and P. aeruginosa were incubated at 37° for 24-48 hours, and those incubated with C. albicans and A. niger were incubated at 25° for 48-72 hours.
Interpretation and result: After incubation, if a zone of inhibition was visible around the compound placed, the susceptibility of the organism to the compound was considered to be positive. The degree of positiveness of the compound was decided by the size of the zone.
The broth dilution method was chosen for the determination of the MIC. A 10^-1 molar stock solution was prepared by dissolving or suspending the required amount of compound in the sterilized distilled water. The desired number of sterile test tubes were aseptically filled with 9.0 ml. of Trypticase Soy Broth(BBL). 1.0 ml. of the stock solution was added to the first tube and mixed thoroughly. With a sterile pipette, 1.0 ml. was transferred from the first tube to the second tube. […]

bacterial growth = assay: Preservative action in cosmetic formulations; details: for preservation against bacterial combination: Examples I and III of U.S. Pat. No. 3,957,970, replacing the 0.05% preservative by an equal amount
Description: The compositions of this invention are of particular utility in aqueous cosmetic formulations to inhibit bacterial growth. Reference is hereby made to cosmetic formulations as disclosed in the following U.S. Pat. Nos.: (1) 4,159,318 (2) 4,164,564, (3) 4,137,302, (4) 4,148,875, (5) 4,001,141, (6) 4,048,338, (7) 3,919,430 and (8) 3,957,970 as exemplary of formulations with which the present thioureas and thiazoles can be used; thus, Example 4 of U.S. Pat. No. 4,137,302 discloses ethyl p-dimethylaminobenzoate (0.75%).
In Example 6 of U.S. Pat. No. 4,048,338, the 0.18 parts of methyl p-hydroxybenzoate is replaced by equal parts of the compound of Example 10 on the one hand and that of Example 12 on the other hand.
Each of the foregoing U.S. Patents (1) to (8) is hereby incorporated by reference thereto.

[1] = LD50 test (acute toxicity, intraperitoneal); format: in vivo, Charles River CD-1 male mice; details: 2000 mg/kg, one mouse
Procedure: The toxicity of some of the compounds was ascertained in an LD50 test.
The LD50 tests were performed for the following compounds; N-β-D-glucopyranosyl-N'-n-butylthiourea, N-β-D-glucopyranosyl-N'-benzylthiourea, N-β-D-glucopyranosyl-piperidine-1-thiocarboxamide, N-β-D-glucopyranosylthiourea, and ethyl 2-(N-β-D-glucopyranosyl)aminothiazole-4-carboxylate. The compounds were administered intraperitoneally dissolved or suspended in normal saline by 20-25 gm Charles River CD-1 male mice.
Two animals received 1000 mg/kg and one animal received 2000 mg/kg. With the exception of the animal given by ethyl 2-(N-β-D-glucopyranosyl)aminothiazole-4-carboxylate at 2000 mg/kg, all animals survived the acute effects and appeared normal after 1 week.

[2] = Example 6 of U.S. Pat. No. 4,048,338, replacing 0.18 parts of methyl p-hydroxybenzoate by equal parts

Compound	activity against C. albicans (in words) (Candida albicans)	activity against A. niger (in words) (Aspergillus niger)	activity against P. aeruginosa (in words) (Pseudomonas aeruginosa)	activity against E. coli (in words) (Escherichia coli)	activity against S. aureus (in words) (Staphylococcus aureus)	MIC (Staphylococcus aureus; Staphylococcus aureus, S. aureus A.T.C.C. 6538, broth dilution, 24-48 hours at 37°, read-out: M.I.C. (Minimal Inhibitory Concentration))	preservative action (bacterial growth; Example 4 of U.S. Pat. No. 4,137,302, in lieu of ethyl p-dimethylaminobenzoate (0.75%))	preservative action (bacterial growth; [2])	preservation against bacterial combination (bacterial growth)	death [1]
CCCCNC(=S)N[C@@H]1O[C@H](CO)[C@@H](O)[C@H](O)[C@H]1O [Example 2, N-β-D-Glucopyranosyl-N'-n-butylthiourea]	particularly outstanding activity	particularly outstanding activity	–	–	–	–	–	–	–	–
OC[C@H]1O[C@@H](NC(=S)NCc2ccccc2)[C@H](O)[C@@H](O)[C@@H]1O [Example 5, N-β-D-Glucopyranosyl-N'-benzylthiourea]	–	–	particularly outstanding activity	particularly outstanding activity	–	–	–	–	–	–
C=CCNC(=S)N[C@@H]1O[C@H](CO)[C@@H](O)[C@H](O)[C@H]1O [Example 10, N-β-D-Glucopyranosyl-N'-allylthiourea]	–	–	–	–	particularly outstanding activity	100 µM (≈ 27.8 µg/mL)	excellent preservative action	excellent preservative action	excellent preservation against bacterial combination	–
OC[C@H]1O[C@@H](NC(=S)N2CCCCC2)[C@H](O)[C@@H](O)[C@@H]1O [Example 11, N-β-D-Glucopyranosylpiperidine-1-thiocarboxamide]	–	–	particularly outstanding activity	–	–	–	–	–	–	–
OC[C@H]1O[C@@H](NC(=S)NCc2ccc(Cl)cc2)[C@H](O)[C@@H](O)[C@@H]1O [Example 12, N-β-D-Glucopyranosyl-N'-4-chlorobenzylthiourea]	broad inhibitory activities	–	–	broad inhibitory activities	broad inhibitory activities	–	–	excellent preservative action	excellent preservation against bacterial combination	–
Br.CCOC(=O)c1csc(N[C@@H]2O[C@H](CO)[C@@H](O)[C@H](O)[C@H]2O)n1 [Example 15, Ethyl 2-(N-β-D-glucopyranosyl)aminothiazole-4-carboxylate hydrobromide]	broad activities against 4 organisms	not against A. Niger	broad activities against 4 organisms	broad activities against 4 organisms	broad activities against 4 organisms	–	–	–	excellent preservation against bacterial combination	dying two days later
